Patent publication US20150158810A1, “PREVENTION OR SUPPRESSION OF CYRSTALLISATION OF BORIC ACID PRESENT IN AN AQUEOUS PHASE” (COMMISSARIAT À L'ÉNERGIE ATOMIQUE ET AUX ÉNERGIES …, priority 2012, published 2015)

What was measured:
[1] = crystallization of boric acid in aqueous phase, temperature cycle N; format: physicochemical
Experimental: (§1) The tests described in the examples hereafter are conducted by means of a device of the type of the one illustrated in the single FIGURE.
(§2) The device consists of a beaker 10 with a double glass wall 11, inside which flows a heat transfer fluid 12. The beaker 10 also contains a U-shaped metal tube 13, which contains a circulating heat transfer fluid 14.
(§3) The temperatures of the heat transfer fluids 12 and 14 are each adjusted independently of the other, by a heat generator (not shown in the single FIGURE).
(§4) However, the temperature of the heat transfer fluid 14 is adjusted so that it is always strictly less than that of the heat transfer fluid 12, typically lower by 1° C. to 10° C. If it is assumed that heat conduction of the material making up the metal tube 13 occurs without any notable loss, the walls of the tube 13 […] thus form a so-called ? cold ? element.
(§5) Two temperature cycles may be applied to an aqueous phase 15 containing boric acid, which is poured into the beaker 10.
A temperature cycle ? […]
(§6) Regardless of the relevant temperature cycle, a crystallization rate is defined at the end of one of these temperature cycles, which corresponds to the ratio of the mass of boric acid crystals measured at the end of this cycle, to the total initially introduced mass of boric acid.

[2] = crystallization of boric acid in aqueous phase, temperature cycle P (with a penalty); format: physicochemical
Experimental: as §1, §2, §3, §4, §5
A temperature cycle ? P ? […]
as §6

Row | SMILES | reduction in the crystallization of boric acid in an aqueous phase in presence of the compound [1] | reduction of the crystallization of boric acid in an aqueous phase in presence of the compound [2]
1 | NC(CO)(CO)CO [Tris, 2-amino-2-(hydroxymethyl)-propane-1,3-diol] | appreciable reduction | –
2 | OCC(CO)(CO)CO [pentaerythritol] | appreciable reduction | large reduction
